Columns and labels:
Test in all cases: I-Ag7 SABR-II library screen, enrichment score
Format in all cases: cell-based, mouse
4-8Ins TCR = system: 4-8Ins TCR
Text: (§1) We then asked whether SABR-IIs could be used to present a library of epitopes for CD4^+ T cell antigen discovery. To that end, we constructed a SABR-II library to present epitopes derived from pancreatic islets in I-Ag7 by curating a list of 4,075 published epitopes from the Immune Epitope Database (iedb.org)[50] and a study by Wan et al.[51] (Supplementary Table 1). Of note, this defined library consisted of unmodified epitopes from endogenous proteins, synthetic mimotopes, deamidated epitopes and hybrid insulin peptides (HIPs) that arise from post-translational fusion and are not genetically encoded in vivo[52],[53]. The epitope library was inserted into the I-Ag7 SABR-II backbone through pooled oligonucleotide synthesis, amplification and ligation-free cloning (Extended Data Fig. 3a). The I-Ag7 SABR-II-library was then expressed in NFAT–GFP Jurkat cells. We confirmed that after sequencing, the library accounted for a mean of 708 reads per epitope (Extended Data Fig. 3b). As a proof of concept, we performed co-incubation assays with Jurkat cells expressing the BDC2.5 TCR and sorted the top 1–2% of GFP^+CD69^+ cells at a rate of ~20 min per replicate with three replicates per TCR. We extracted the genomic DNA from sorted cells, amplified the SABR portion of the integrated proviruses and subjected the amplicons to Illumina sequencing (Extended Data Fig. 3c,d). The 1–2% sort gate represents >50-fold enrichment of cognate epitopes with minimal loss of signal (Extended Data Fig. 3e–h). Sequence reads were aligned to the I-Ag7 SABR-II backbone and the corresponding epitopes were scored based on their read counts. For each TCR under investigation, an enrichment score (ES) was determined for all the epitopes in a library. In each experiment, three replicates of a sort with TCR-expressing Jurkat cells were performed and reads were counted post-sequencing. In addition, three replicates of the unsorted library were also sequenced. A linear regression model was built using the unsorted library counts and used to determine the expected abundance of each epitope in the library. The ES was calculated based on the difference between the measured and the expected abundance of each epitope on a per-TCR basis (Fig. 1e). Based on ES values, two quantitative thresholds were used to determine putative cognate epitopes of a given TCR. A high-confidence zone containing clear outliers with a high ES and a low-confidence zone containing weak outliers with a moderately high ES were determined (Fig. 1e). This two-tiered strategy was used to call putative hits from screens. All the top-scoring epitopes for the BDC2.5 TCR were known BDC2.5 ligands containing the WXRM(D/E) motif (Fig. 1f,g, enriched ligands in red), a well-characterized trait of the BDC2.5 TCR[43],[54]–[56]. Across several independent experiments there was limited variation in ES values for the same TCRs and several epitopes fell into high- or low-confidence zones consistently (Extended Data Fig. 4a). Using a different TCR that was isolated from NOD mice, 4-8Ins[57], which recognized the InsB9:23 epitope ([…]), we observed a similar pattern of ES for cognate epitopes (Extended Data Fig. 4b).
(§2) For SABR library screens, 3 × 10^6 NFAT–GFP Jurkat cells expressing the SABR library were labeled with CellTrace Violet (BioLegend) according to the manufacturer’s protocol before incubation with 3 × 10^6 Jurkat cells expressing the TCR of interest. These mixtures were incubated in a six-well plate for 16–20 h. Cells were stained with anti-CD69-APC-Cy7 where indicated (BioLegend) and the top 1–2% of GFP^+CD69^+ cells were sorted for genomic DNA extraction, indexing and sequencing (see below). Multiplexed assays were scaled on a per-TCR basis (for example 3 × 10^6 for each of three TCRs against 9 × 10^6 library cells). […]

BDC2.5 TCR = conditions: for Enrichment score: I-Ag7 library; for Enrichment score EXPT1 / Enrichment score EXPT2 / Enrichment score EXPT3 / Enrichment score EXPT5 / Enrichment score EXPT7 / Enrichment score EXPT8: sheet Fig 1F, whole library; for Enrichment score EXPT1: independent biological experiment 1 of 8; for Enrichment score EXPT2: independent biological experiment 2 of 8; for Enrichment score EXPT3: independent biological experiment 3 of 8; for Enrichment score EXPT5: independent biological experiment 5 of 8; for Enrichment score EXPT7: independent biological experiment 7 of 8; for Enrichment score EXPT8: independent biological experiment 8 of 8
Text: as §1, §2

TCR10B = conditions: TCR_Mean minus PREDICTED_TCR (from LIB_Mean, SLOPE 0.894516, INTERCEPT 2.58857e-5), PZ51
In short: (§3)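 Enrichment score: the difference between each epitope's sequenced abundance in sorted cells and its abundance predicted from triplicate unsorted-library reads by linear regression. Sorts took the top 1–2% GFP⁺CD69⁺ NFAT–GFP Jurkat reporters after co-culture of TCR⁺ Jurkats with the I-Ag7 SABR-II epitope library, three replicates per TCR.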

TCR12 = conditions: TCR_Mean minus PREDICTED_TCR (from LIB_Mean, SLOPE 0.937219, INTERCEPT 1.54064e-5), PZ51
In short: as §3

[1] = EXPT1 of 3 biological experiments
[2] = EXPT1 of 8 biological experiments
[3] = one biological experiment (Ext. Data Fig. 6B)

Row | Sequence | Enrichment score (4-8Ins TCR; [1]) | Enrichment score (4-8Ins TCR; EXPT2 of 3) | Enrichment score (4-8Ins TCR; EXPT3 of 3) | Enrichment score (BDC2.5 TCR; [2]) | Enrichment score (BDC2.5 TCR; EXPT2 of 8) | Enrichment score (BDC2.5 TCR; EXPT3 of 8) | Enrichment score (BDC2.5 TCR; EXPT4 of 8) | Enrichment score (BDC2.5 TCR; EXPT6 of 8) | Enrichment score (BDC2.5 TCR; EXPT7 of 8) | Enrichment score (BDC2.5 TCR; EXPT8 of 8) | Enrichment score (BDC2.5 TCR; [3]) | Enrichment score EXPT1 (BDC2.5 TCR) | Enrichment score EXPT2 (BDC2.5 TCR) | Enrichment score EXPT3 (BDC2.5 TCR) | Enrichment score EXPT5 (BDC2.5 TCR) | Enrichment score EXPT7 (BDC2.5 TCR) | Enrichment score EXPT8 (BDC2.5 TCR) | Enrichment score (TCR10B) | Enrichment score (TCR12)
1 | AAVEEGIVAGGGVTLL | 6.335e-5 | -6.366e-5 | -1.563e-5 | -2.818e-5 | -9.793e-5 | 0.0001628 | -0.0001173 | 0.0001045 | -9.918e-5 | -0.0001409 | 0.0001628 | -9.793e-5 | -2.818e-5 | 0.0001628 | 9.606e-5 | -9.918e-5 | -0.0001409 | -7.785e-5 | -3.643e-5
2 | AEKVRNLPAGHGLNAQ | -3.1932e-6 | 0.0001517 | -4.244e-5 | 2.296e-5 | 1.2173e-5 | 6.168e-6 | 0.0002539 | -2.745e-5 | 9.062e-5 | 9.25e-5 | 6.168e-6 | 1.2173e-5 | 2.296e-5 | 6.168e-6 | 8.842e-5 | 9.062e-5 | 9.25e-5 | -0.0001336 | -0.0001285
3 | AGGVAVIKAGAATEV | 2.615e-5 | -2.489e-5 | 4.9e-5 | -4.65e-5 | 5.397e-5 | 2.078e-5 | 2.834e-5 | -5.5015e-5 | -7.0061e-5 | -2.822e-5 | 2.078e-5 | 5.397e-5 | -4.65e-5 | 2.078e-5 | 9.8885e-5 | -7.0061e-5 | -2.822e-5 | 1.586e-6 | -1.359e-5
4 | AKAAVEEGIVAGGGV | -1.842e-5 | 0.0001302 | -6.807e-5 | -0.0001132 | -8.351e-5 | -9.939e-5 | 5.807e-5 | 0.0001711 | 8.834e-6 | 1.023e-7 | -9.939e-5 | -8.351e-5 | -0.0001132 | -9.939e-5 | 0.0002581 | 8.834e-6 | 1.023e-7 | 7.202e-5 | -1.697e-5
5 | ALVREGLRNVAAGANP | -1.064e-5 | -1.266e-5 | -8.85e-6 | -1.509e-5 | -2.732e-5 | -2.567e-5 | -1.199e-5 | -1.468e-5 | -1.252e-5 | -2.71e-5 | -2.567e-5 | -2.732e-5 | -1.509e-5 | -2.567e-5 | -3.182e-5 | -1.252e-5 | -2.71e-5 | -2.589e-5 | -1.438e-5

Reference: article PMC11093748, “De novo identification of CD4^+ T cell epitopes” (Nature Methods, 2024)
